# In ChEMBL document CHEMBL2074235, “Transporter-mediated Drug Interactions” (Drug Metabol Pharmacokin, 2002):
# Biological target: T1, Solute carrier family 15 member 1 (Homo sapiens) (UniProt P46059)
# T1 sequence (whole entry): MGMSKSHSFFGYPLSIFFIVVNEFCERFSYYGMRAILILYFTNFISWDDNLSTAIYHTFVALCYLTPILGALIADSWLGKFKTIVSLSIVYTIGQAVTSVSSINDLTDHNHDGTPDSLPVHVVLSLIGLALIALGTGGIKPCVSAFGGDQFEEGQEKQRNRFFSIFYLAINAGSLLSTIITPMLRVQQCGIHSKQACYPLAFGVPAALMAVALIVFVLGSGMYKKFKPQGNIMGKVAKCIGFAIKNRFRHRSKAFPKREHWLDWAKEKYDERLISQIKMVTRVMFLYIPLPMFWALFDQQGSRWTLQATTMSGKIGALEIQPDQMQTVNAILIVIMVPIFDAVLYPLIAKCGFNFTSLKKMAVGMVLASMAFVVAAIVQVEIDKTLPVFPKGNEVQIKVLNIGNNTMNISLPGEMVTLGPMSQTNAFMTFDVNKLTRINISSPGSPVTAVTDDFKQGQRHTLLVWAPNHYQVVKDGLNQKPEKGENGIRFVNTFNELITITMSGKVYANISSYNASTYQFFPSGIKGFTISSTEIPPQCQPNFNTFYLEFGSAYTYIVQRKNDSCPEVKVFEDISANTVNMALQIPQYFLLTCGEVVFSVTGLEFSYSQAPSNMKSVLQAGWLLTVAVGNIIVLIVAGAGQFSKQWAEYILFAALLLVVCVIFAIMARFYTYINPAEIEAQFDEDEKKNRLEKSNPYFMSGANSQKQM
# Assay: TP_TRANSPORTER: uptake in Xenopus laevis oocytes
# Type: functional, cell-based
# Settings: Oocyte
row,Structure (SMILES),Activity
1,NCCC(=O)N[C@@H](Cc1c[nH]cn1)C(=O)O,substrate [+]
2,CC1(C)S[C@@H]2[C@H](NC(=O)Cc3ccccc3)C(=O)N2[C@H]1C(=O)O,substrate [+]
3,C[C@H](N[C@@H](CCc1ccccc1)C(=O)O)C(=O)N1CCC[C@H]1C(=O)O,substrate [+]
4,CC1=C(C(=O)O)N2C(=O)[C@@H](NC(=O)[C@H](N)c3ccc(O)cc3)[C@H]2SC1,substrate [+]
5,CCOC(=O)[C@H](CCc1ccccc1)N[C@@H](C)C(=O)N1CCC[C@H]1C(=O)O,substrate [+]
6,C=CC1=C(C(=O)O)N2C(=O)[C@@H](NC(=O)/C(=N\O)c3csc(N)n3)[C@H]2SC1,substrate [+]
7,O=C(O)CN1C[C@@H](c2cccs2)SC[C@H](N[C@@H](CCc2ccccc2)C(=O)O)C1=O,substrate [+]
8,C[C@@H](O)[C@H]1C(=O)N2C(C(=O)O)=C([C@H]3CCCO3)S[C@H]12,is not a substrate [-]
9,Nc1nc(/C(=C/CC(=O)O)C(=O)N[C@@H]2C(=O)N3C(C(=O)O)=CCS[C@H]23)cs1,substrate [+]
10,CCOC(=O)[C@H](CCc1ccccc1)N[C@H]1CS[C@H](c2cccs2)CN(CC(=O)O)C1=O,substrate [+]
11,CO/N=C(\C(=O)N[C@@H]1C(=O)N2C(C(=O)O)=CCS[C@H]12)c1csc(N)n1,is not a substrate [-]
12,C=CC1=C(C(=O)O)N2C(=O)[C@@H](NC(=O)/C(=N\OCC(=O)O)c3csc(N)n3)[C@H]2SC1,substrate [+]
13,O=C(O)CO/N=C(\C(=O)N[C@@H]1C(=O)N2C(C(=O)O)=CCS[C@H]12)c1cscn1,substrate [+]
14,NCCCC[C@H](N[C@@H](CCc1ccccc1)C(=O)O)C(=O)N1CCC[C@H]1C(=O)O,is not a substrate [-]
